The values below come from ChEMBL document CHEMBL2094260, “Malaria Box Tuberculosis Screening Data”.

For test [1], the system named is Mycobacterium tuberculosis. The test is described as follows: MMV: Screen against Mtb, single point, non replicating, at 25uM. The test is classed as functional.
Test [2] deals with Mycobacterium tuberculosis. The test is described as follows: MMV: Screen against Mtb, single point, replicating, at 25uM. The test is classed as functional.

With `COc1ccc2c(c1)C1(Nc3ccccc3-c3nc4ccccc4n31)C(=O)N2` (stereo not drawn), the inhibition at 25 µM in test [1] came out at 10.8%; in test [2], 0.517%.

`COc1cccc(Cn2c(Oc3ccccc3)nc3c2c(=O)n(C)c(=O)n3C)c1`: the inhibition at 25 µM in test [1] was -1.06%; in test [2], 3.71%.

Regarding `CCOc1c(Cl)cc(CNCC(O)c2ccccc2)cc1OC` (stereo not drawn), the values for the inhibition at 25 µM in test [1] and in test [2] were 6.97% and 11.9%, respectively.

For `OC(CNCC1CCCO1)Cn1c2ccc(Cl)cc2c2cc(Cl)ccc21` (stereo not drawn), the inhibition at 25 µM came to 20.4% in test [1] and 1.28% in test [2].

Regarding `CCOc1ccccc1CN1CCc2nc3cc(C(C)(C)C)nn3c(O)c2C1`, the inhibition at 25 µM was found to be 1.04% in test [1] and 13.9% in test [2].

For `CN1CCN(c2ncnc3c2[nH]c2ccc(Cl)cc23)CC1`, the inhibition at 25 µM in test [1] came to 1.91%; in test [2] it was 23.9%.

As to `CC1(c2ccccc2)Nc2ccccc2-c2nc3ccccc3n21` (stereo not drawn), the inhibition at 25 µM is 12% in test [1] and 8.87% in test [2].

`COc1cccc(C2(C)Nc3ccccc3-c3nc4ccccc4n32)c1` (stereo not drawn): the inhibition at 25 µM in test [1] came to 8.19%; in test [2], 14.9%.

Turning to `CC(C)CNC(=O)c1c(N)n(CCc2ccccc2F)c2nc3ccccc3nc12`, the values for the inhibition at 25 µM in test [1] and in test [2] were 2.78% and 14.8%, respectively.

For the molecule `O=C1c2ccccc2-c2nnc(-c3ccc(Br)cc3)cc21`, the inhibition at 25 µM in test [1] turned out to be 1.49%; in test [2], 9.33%.

With `CN(C)CCNc1cc(-c2ccccc2)nc2ccccc12`, the inhibition at 25 µM came out at 6.45% in test [1] and 6.89% in test [2].

`CCOC(=O)C1=C(C)N=c2sc(=Cc3cc(Cl)ccc3O)c(=O)n2C1c1ccc(OC)cc1` (stereo not drawn): the inhibition at 25 µM in test [1] is 13.4%; in test [2] it was -0.235%.

As for `COc1ccc2nc(C)cc(Nc3ccc(Cl)cc3)c2c1`, the inhibition at 25 µM came to 7.32% in test [1] and 41.2% in test [2].

As to `CCC(O)c1ccc(Br)cc1NC(=O)c1cccc(Cl)c1` (stereo not drawn), the inhibition at 25 µM was 14.6% in test [1] and 13.9% in test [2].

Take `COc1ccc2nc(C)cc(Nc3cccc(O)c3)c2c1`: the inhibition at 25 µM amounted to 8.19% in test [1] and 7.96% in test [2].

As to `CN(C)CCCNCc1ccc(-c2ccc(F)c(Cl)c2)o1`, the values for the inhibition at 25 µM in test [1] and in test [2] were 1.91% and 23.9%, respectively.

On to `O=c1nc(C=Cc2ccc(Br)cc2)oc2ccccc12`, for which the inhibition at 25 µM was -13.3% in test [1] and 20.6% in test [2].

Take `COc1ccc2nc(N)nc(C)c2c1`: the inhibition at 25 µM was -10.5% in test [1] and 5.53% in test [2].

As to `Cc1sc2ncnc(Sc3nc4ccccc4[nH]3)c2c1C`, the values for the inhibition at 25 µM in test [1] and in test [2] were 22.5% and 14.9%, respectively.

Turning to `COc1ccc(C(=O)NC(c2ccc(Cl)cc2Cl)c2cc(Cl)c3cccnc3c2O)cc1` (stereo not drawn), the values for the inhibition at 25 µM in test [1] and in test [2] were -4.19% and 3.06%, respectively.

Take `CCC(=O)Nc1nnc(Cc2ccc(OC)c(OC)c2)s1`: the inhibition at 25 µM in test [1] is 1.56%; in test [2] it was -1.3%.

With `O=C(NCCCN1CCC(N2CCCCC2)CC1)C1=Cc2cc(Br)ccc2OC1`, the inhibition at 25 µM was 6.82% in test [1] and 14.7% in test [2].

Consider `CC(=O)Nc1nnc(SCc2c(C)cc(C(C)(C)C)cc2C)s1`, for which the values for the inhibition at 25 µM in test [1] and in test [2] were 19.7% and 3.55%, respectively.

Consider `O=C(Nc1ccc(CN2CCOCC2)cc1)c1ccc(-c2cc(Cl)ccc2Cl)o1`, for which the inhibition at 25 µM in test [1] came to 14.5%; in test [2] it was 17.1%.

In the case of `Cc1ccc(OCCCCCCNCCO)c(C)c1`, the results for the inhibition at 25 µM in test [1] and in test [2] were 13% and 17.5%, respectively.

With `COc1cccc(C(=O)Nc2ccc(-c3nc4ccccc4[nH]3)cc2)c1`, the inhibition at 25 µM in test [1] was determined as 0.862%; in test [2], 7.2%.

`COCCn1c(C)nc2ccccc2c1=O`: the inhibition at 25 µM in test [1] amounted to 13.6%; in test [2], 6.59%.

Turning to `O=C(Nc1cccc(-c2nc3ccccc3[nH]2)c1)c1cccc(NC(=O)c2ccco2)c1`, the results for the inhibition at 25 µM in test [1] and in test [2] were 46.1% and 21.2%, respectively.

Consider `O=C(NC1CCN(Cc2ccccc2)CC1)c1cc(-c2cccnc2)nc2ccc(Cl)cc12`, for which the inhibition at 25 µM in test [1] was 18%; in test [2], 14.3%.

Take `CCN(Cc1ccccc1)C1CCN(Cc2cc(Br)ccc2O)CC1`: the figures for the inhibition at 25 µM in test [1] and in test [2] were 12.7% and 16.8%, respectively.

In the case of `CCOC(=O)c1cnc2ccc(Cl)cc2c1NCCCN(C)C`, the inhibition at 25 µM in test [1] is -0.993%; in test [2], 2.59%.

Take `CCOc1ccccc1NC(=O)CN1CCN(C(=O)c2ccco2)CC1`: the inhibition at 25 µM in test [1] was -0.186%; in test [2] it was 23.1%.

For the molecule `O=C1c2ccccc2C2=Nc3ccccc3SC(c3cccc(F)c3)C12` (stereo not drawn), the inhibition at 25 µM in test [1] is -5.43%; in test [2], 7.45%.

In the case of `Cc1ccccc1OCCSc1nc2ccc(NC(=O)c3ccccc3)cc2s1`, the inhibition at 25 µM in test [1] is 9.66%; in test [2], 22%.

With `COc1ccc(-c2nonc2NC(=O)c2cccc(Cl)c2)cc1OC`, the inhibition at 25 µM is 15.7% in test [1] and 9.93% in test [2].

Consider `Cc1cc(NC(=O)c2ccc(-c3ccccc3)cc2)no1`, for which the inhibition at 25 µM in test [1] turned out to be 13.8%; in test [2], 8.72%.

Regarding `CCOc1cc2c(cc1OCC)C(c1cc(C)c(O)c(C)c1)NCC2` (stereo not drawn), the results for the inhibition at 25 µM in test [1] and in test [2] were 11.5% and 10.8%, respectively.

For `O=C1CC(O)(C(F)(F)C(F)(F)F)Oc2ccccc21` (stereo not drawn), the values for the inhibition at 25 µM in test [1] and in test [2] were 39.1% and 13%, respectively.

On to `COc1cc(SC)ccc1C(=O)N1CCCC(C)C1` (stereo not drawn), for which the results for the inhibition at 25 µM in test [1] and in test [2] were 8.89% and 17.4%, respectively.

`CC(C)c1ccc(CNCC(O)c2ccccc2)cc1` (stereo not drawn): the results for the inhibition at 25 µM in test [1] and in test [2] were 11.7% and 30.9%, respectively.

Consider `CC(C)(C)c1ccc(C(=O)Nc2c3c(nn2-c2cccc(Cl)c2)CSC3)cc1`, for which the inhibition at 25 µM in test [1] was -4.72%; in test [2], -1.02%.

For the molecule `CCOc1cc2c(cc1OCC)C(c1cc(Cl)c(O)c(OCC)c1)NCC2` (stereo not drawn), the inhibition at 25 µM in test [1] is -14%; in test [2], -12.2%.

For `COc1ccc(N2CCN(C(CNC(=O)CC(C)(C)C)c3ccc4c(c3)OCO4)CC2)cc1` (stereo not drawn), the inhibition at 25 µM in test [1] was -8.45%; in test [2], 0.0784%.

As for `Oc1ccc(Br)cc1CN1CCN(Cc2cccc(F)c2)CC1`, the figures for the inhibition at 25 µM in test [1] and in test [2] were -1.58% and 28.5%, respectively.

With `CCOC(=O)C1(Cc2ccccc2)CCN(Cc2cccc(OC)c2O)CC1`, the figures for the inhibition at 25 µM in test [1] and in test [2] were 8.77% and 9.17%, respectively.

`CC(C)(C)c1ccc2c(c1)CN(Cc1ccc(Cl)cc1)CO2`: the inhibition at 25 µM turned out to be 41.2% in test [1] and 48.4% in test [2].

Turning to `O=c1nc(C=Cc2ccc(Cl)cc2)oc2ccccc12`, the inhibition at 25 µM in test [1] was determined as 7.84%; in test [2], 46.8%.

For `O=C(NCc1ccco1)C1CCN(S(=O)(=O)c2ccc(Br)cc2)CC1`, the inhibition at 25 µM is 10.5% in test [1] and 13% in test [2].

On to `CN(C)c1ccc(N2C(N)=NC(N)=NC2(C)C)cc1`, for which the inhibition at 25 µM in test [1] came to 1.21%; in test [2] it was 2.64%.

Consider `COc1ccc(OC)c(C2C3=C(CC(C)(C)CC3=O)N(c3ccc(Cl)c(Cl)c3)C3=C2C(=O)CC(C)(C)C3)c1`, for which the inhibition at 25 µM in test [1] amounted to 7.7%; in test [2] it was 5.56%.

As for `COc1ccc(CN2CCN(Cc3ccccc3)CC2)c(O)c1`, the inhibition at 25 µM in test [1] is -5.78%; in test [2] it was 0.392%.

Consider `COc1cc2c(cc1OC)C1=NNC(=O)C1=NC(C)(C)C2`, for which the inhibition at 25 µM in test [1] is 26.7%; in test [2], 11.3%.

With `Oc1c(CN2CCN(c3ccccc3F)CC2)cc(Br)c2cccnc12`, the inhibition at 25 µM in test [1] is 30.2%; in test [2], 21.8%.

For the molecule `Oc1c2c(nc3cc(-c4ccccc4)nn13)CCCC2`, the inhibition at 25 µM in test [1] was 10.3%; in test [2] it was 19.8%.

With `CCCCc1c(C)nc2c(OC)cccc2c1O`, the inhibition at 25 µM in test [1] came out at 6.62%; in test [2] it was 26.3%.

For the molecule `OC1CCCCC1C1(NC(=S)Nc2ccccc2)CCCCC1` (stereo not drawn), the inhibition at 25 µM was determined as 13.9% in test [1] and 7.76% in test [2].

`OC1=C2C(=Nc3ccccc3SC2c2ccc(Br)cc2)c2ccccc21` (stereo not drawn): the figures for the inhibition at 25 µM in test [1] and in test [2] were 0.604% and -4.78%, respectively.

For the molecule `COc1ccc(C)c2sc(N(Cc3cccnc3)C(=O)c3ccc(C#N)cc3)nc12`, the inhibition at 25 µM in test [1] is 23.9%; in test [2] it was 9.48%.

On to `CCOC(=O)C1CCN(C(=O)CN2C(=O)c3ccccc3C2c2c[nH]c3ccccc23)CC1` (stereo not drawn), for which the inhibition at 25 µM in test [1] was found to be 8.89%; in test [2], 4.16%.

Regarding `CCOc1ccc(CCNC(=O)c2cccs2)cc1OCC`, the results for the inhibition at 25 µM in test [1] and in test [2] were 15% and 30%, respectively.

For `COc1ccc(C(=O)C2CC2c2ccc(Cl)cc2)cc1` (stereo not drawn), the results for the inhibition at 25 µM in test [1] and in test [2] were -5.07% and 17.5%, respectively.

With `Cc1cc(N2CCN(C3CCCC3)CC2)n2c(nc3ccccc32)c1C#N`, the inhibition at 25 µM in test [1] turned out to be 11.5%; in test [2] it was 7.81%.

In the case of `CCCCOc1ccc(C(=O)Nc2cc(C)on2)cc1`, the inhibition at 25 µM was 15% in test [1] and 23.1% in test [2].

Regarding `CCc1ccc(Nc2cc(C)nc3nc(C)nn23)cc1`, the inhibition at 25 µM in test [1] turned out to be 9.06%; in test [2] it was 11.4%.

As to `CCN(CC)S(=O)(=O)c1ccc(-c2csc(Nc3ccc(C)c(C)c3)n2)cc1`, the inhibition at 25 µM in test [1] worked out at 14.1%; in test [2], 6.89%.

With `CCN1CCN(c2c(C(=O)c3ccccc3)cnc3cc(OC)c(OC)cc23)CC1`, the inhibition at 25 µM came out at 1.14% in test [1] and 5.25% in test [2].

In the case of `Cc1c(C)n(CC(O)CNC2CCCCC2C)c2ccccc12` (stereo not drawn), the inhibition at 25 µM came to 7.84% in test [1] and 24.7% in test [2].

As to `Cc1ccc(S(=O)(=O)c2c(COC(=O)c3cccc(C)c3)c(-c3ccccc3)nn2C)cc1`, the inhibition at 25 µM in test [1] was determined as 8.24%; in test [2], 9.01%.

Take `CCCCN(CCCC)S(=O)(=O)c1ccc(NC(=O)c2ccco2)cc1`: the inhibition at 25 µM in test [1] worked out at 6.97%; in test [2], 8.56%.
